In BigSolDB 2.1:

Question: What does the source list for `Cc1ccc2ccccc2c1`?
Answer: solubility (mole fraction) (in 1,4-dioxane, 278.25 K): 0.468; solubility (mole fraction) (in 1,4-dioxane, 283.25 K): 0.508; solubility (mole fraction) (in 1,4-dioxane, 288.35 K): 0.575; solubility (mole fraction) (in 1,4-dioxane, 293.25 K): 0.65; solubility (mole fraction) (in 1,4-dioxane, 298.35 K): 0.726; solubility (mole fraction) (in 1,4-dioxane, 303.25 K): 0.817; solubility (mole fraction) (in acetone, 278.45 K): 0.218; solubility (mole fraction) (in acetone, 283.25 K): 0.286; solubility (mole fraction) (in acetone, 288.35 K): 0.368; solubility (mole fraction) (in acetone, 293.25 K): 0.484; solubility (mole fraction) (in acetone, 298.35 K): 0.588; solubility (mole fraction) (in acetone, 303.25 K): 0.741; solubility (mole fraction) (in ethanol, 278.25 K): 0.0389; solubility (mole fraction) (in ethanol, 283.25 K): 0.058; solubility (mole fraction) (in ethanol, 288.35 K): 0.109; solubility (mole fraction) (in ethanol, 293.25 K): 0.148; solubility (mole fraction) (in ethanol, 298.35 K): 0.287; solubility (mole fraction) (in ethanol, 303.25 K): 0.458; solubility (mole fraction) (in ethylene glycol, 278.25 K): 0.00742; solubility (mole fraction) (in ethylene glycol, 283.25 K): 0.00811; solubility (mole fraction) (in ethylene glycol, 288.35 K): 0.00864; solubility (mole fraction) (in ethylene glycol, 293.25 K): 0.00963; solubility (mole fraction) (in ethylene glycol, 298.35 K): 0.0102; solubility (mole fraction) (in ethylene glycol, 303.25 K): 0.0115; solubility (mole fraction) (in isopropanol, 278.25 K): 0.0276; solubility (mole fraction) (in isopropanol, 283.25 K): 0.0508; solubility (mole fraction) (in isopropanol, 288.35 K): 0.077; solubility (mole fraction) (in isopropanol, 293.25 K): 0.133; solubility (mole fraction) (in isopropanol, 298.35 K): 0.233; solubility (mole fraction) (in isopropanol, 303.25 K): 0.43; solubility (mole fraction) (in n-butanol, 278.25 K): 0.0596; solubility (mole fraction) (in n-butanol, 283.25 K): 0.0794; solubility (mole fraction) (in n-butanol, 288.35 K): 0.13; solubility (mole fraction) (in n-butanol, 293.25 K): 0.223; solubility (mole fraction) (in n-butanol, 298.35 K): 0.37; solubility (mole fraction) (in n-butanol, 303.25 K): 0.68; solubility (mole fraction) (in n-butyl acetate, 278.15 K): 0.621; solubility (mole fraction) (in n-butyl acetate, 283.15 K): 0.673; solubility (mole fraction) (in n-butyl acetate, 288.15 K): 0.729; solubility (mole fraction) (in n-butyl acetate, 293.15 K): 0.787; solubility (mole fraction) (in n-butyl acetate, 298.15 K): 0.849; solubility (mole fraction) (in n-butyl acetate, 303.15 K): 0.951; solubility (mole fraction) (in n-heptane, 278.15 K): 0.502; solubility (mole fraction) (in n-heptane, 283.15 K): 0.579; solubility (mole fraction) (in n-heptane, 288.15 K): 0.65; solubility (mole fraction) (in n-heptane, 293.15 K): 0.726; solubility (mole fraction) (in n-heptane, 298.15 K): 0.831; solubility (mole fraction) (in n-heptane, 303.15 K): 0.906; solubility (mole fraction) (in n-hexane, 278.95 K): 0.283; solubility (mole fraction) (in n-hexane, 283.25 K): 0.348; solubility (mole fraction) (in n-hexane, 288.35 K): 0.443; solubility (mole fraction) (in n-hexane, 293.25 K): 0.55; solubility (mole fraction) (in n-hexane, 298.35 K): 0.643; solubility (mole fraction) (in n-hexane, 303.25 K): 0.811
